These are literature values, as cited in article PMC7496964 (Chemistry (Weinheim an Der Bergstrasse, Germany), 2020).

The data set has as its target human langerin ECD (Homo sapiens, UniProt Q9UJ71).

Chain of human langerin ECD (Q9UJ71 65-328 limits assumed): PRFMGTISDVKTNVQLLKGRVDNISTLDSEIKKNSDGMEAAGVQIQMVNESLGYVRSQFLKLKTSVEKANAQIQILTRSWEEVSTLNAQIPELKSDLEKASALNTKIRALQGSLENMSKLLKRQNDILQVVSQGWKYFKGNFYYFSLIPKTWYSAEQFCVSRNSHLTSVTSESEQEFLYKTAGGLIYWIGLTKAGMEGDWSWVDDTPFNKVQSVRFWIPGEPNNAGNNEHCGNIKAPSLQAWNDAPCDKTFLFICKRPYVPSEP

For the substance 1-α-azido B-trisaccharide [compound 10], the “Langerin affinity (in words), literature” value was “weak affinity”.
